Patent publication US20240026278A1, “BLOOD CELL LYSING AGENT FOR ISOLATING BACTERIA FROM BLOOD CULTURE” (Becton, Dickinson and Company, priority 2020, published 2024)

Tested on: blood cells
Assay: Lysis of blood cells by the lysing agent
Type: cell-based
Conditions: in lysing buffer
From the text: Currently available methods employ saponin to lyse blood cells for isolating bacteria from positive blood cultures. […] It is probable that this identification failure is due to the blood cells not being completely lysed and/or a high content of blood debris. […] In some embodiments, SDA is very water soluble. An advantage of using SDA as the lysing agent for isolating bacteria from positive blood culture is that the MALDI score for challenging species such as Staphylococcus epidermidis can be higher than the cutoff value, leading to correct species identification. Moreover, processing times using SDA versus saponin can be nearly identical.
FIG. 1 depicts exemplary data related to MALDI scores for Staphylococcus epidermidis isolated from positive blood cultures using different lysing agents, namely saponin (SAP), Nonoxynol-9 (Somatic Cell Digestion Agent (SDA)), and a combination thereof. The concentration of each lysing agent was used at 0.52% (w/w). The score for acceptance of identification is greater than or equal to 1.8 for the Sepsityper database and 2.0 for the standard database. […] SDA is generally used as a spermicide by interacting with the lipids in the membranes of the acrosome and the midpiece of the sperm.

Question: With Nonoxynol-9 [SDA] as the substance, how does the blood cell lysis read?
Answer: lyse blood cells very efficiently
